# In PMC8774190, “Characterization and Modification of Light-Sensitive Phosphodiesterases from Choanoflagellates” (Biomolecules, 2022):
# System: T1, CfRhoPDE1
# T1 construct: full-length with N-terminal YFP tag kept; gene codon-optimised to Mus musculus, pGEMHE vector; Xenopus oocyte membrane fraction; all-trans retinal supplied
# Experiment: cGMP hydrolysis by oocyte membranes, chemiluminescent immunoassay, Michaelis-Menten fit
# Assay type: biochemical, Choanoeca flexa
# Details: dark; pH 7.3, 5 mM MgCl2, 100 mM NaCl, 5 mM DTT; 1-100 μM cGMP
compound,measurement,value
Nc1nc2c(ncn2[C@@H]2O[C@@H]3COP(=O)(O)O[C@H]3[C@H]2O)c(=O)[nH]1 [cGMP],Km,~15 µM
